Test results from ChEMBL document CHEMBL4483862, “Open-source discovery of chemical leads for next-generation chemoprotective antimalarials” (2018).

Tested on: Plasmodium berghei
Experiment: Luciferase/luciferin-expressing antifolate-resistant parasites were used to infect a culture of HepG2 cells that were pre-incubated with compounds. Infected hepatocytes emit light due to the luciferase reaction. Assay results are presented as the percent inhibition of light emission compared to control. […]
Format: functional
Settings: sporozoite; for IC90: read-out: LUCIFERASE INFECTION ASSAY - IC90
[1] = read-out: LUCIFERASE INFECTION ASSAY - IC50

CCCc1cc(NCc2cccnc2)n2ncc(-c3ccccc3)c2n1
IC50 (PBLUC_HILL_SLOPE 2.86, PBLUC_R_SQUARED 0.143, read-out: LUCIFERASE INFECTION ASSAY - IC50): 6.97 µM | IC90: > 9.61 µM

Oc1ccc(/C=C/c2ccc3cccc(O)c3n2)cc1Br
IC50 (PBLUC_HILL_SLOPE 43.7, PBLUC_R_SQUARED 0.404, read-out: LUCIFERASE INFECTION ASSAY - IC50): 7.32 µM | IC90: 7.7 µM

O=C(Nc1nc2ccccc2[nH]1)c1cc2ccccc2cc1O
IC50 (PBLUC_HILL_SLOPE 1.13, 0.699, PBLUC_R_SQUARED 0.533, 0.940, read-out: LUCIFERASE INFECTION ASSAY - IC50): 1.94 µM | IC90: > 10 µM

COc1ccc(/C=C/C(=O)Nc2ccc(C34CC5CC(CC(O)(C5)C3)C4)cc2)cc1OC
IC50 (HEPG2TOX_HILL_SLOPE 4.85, 2.53, HEPG2TOX_R_SQUARED 0.902, 0.960, PBLUC_HILL_SLOPE 2.45, PBLUC_R_SQUARED 0.68, read-out: LUCIFERASE INFECTION ASSAY - IC50): 1.99 µM | IC90: 4.89 µM

CC(C)c1ccc(NC(=O)c2ccc(N(C)C)c([N+](=O)[O-])c2)cc1
IC50 (PBLUC_HILL_SLOPE 3.41, PBLUC_R_SQUARED 0.504, read-out: LUCIFERASE INFECTION ASSAY - IC50): 4.36 µM | IC90: 8.31 µM

Cc1ccc(S(=O)(=O)Nc2cccc3ncccc23)s1
IC50 (HEPG2TOX_HILL_SLOPE 1.87, HEPG2TOX_R_SQUARED 0.954, PBLUC_HILL_SLOPE 8.9, PBLUC_R_SQUARED 0.583, read-out: LUCIFERASE INFECTION ASSAY - IC50): 2.91 µM | IC90: 3.72 µM

O=C1C(=O)N(Cc2ccco2)C(=O)N1Cc1ccc(-c2ccccc2)cc1
IC50 (HEPG2TOX_HILL_SLOPE 17.7, HEPG2TOX_R_SQUARED 0.836, PBLUC_HILL_SLOPE 2.05, PBLUC_R_SQUARED 0.957, read-out: LUCIFERASE INFECTION ASSAY - IC50): 4.16 µM | IC90: > 10 µM

O=S(=O)(c1ccc(Cl)s1)N1CCC(C(c2ccccc2)c2ccccc2)CC1
IC50 (FFLUC_HILL_SLOPE 0.891, FFLUC_R_SQUARED 0.199, PBLUC_HILL_SLOPE 11.4, PBLUC_R_SQUARED 0.0957, read-out: LUCIFERASE INFECTION ASSAY - IC50): > 7.64 µM | IC90: > 7.64 µM

CCN(CC)S(=O)(=O)c1ccc(-c2ccc(C3NC(N)=Nc4nc5ccccc5n43)o2)cc1 (stereo not drawn)
IC50 [1]: > 10 µM | IC90: > 10 µM

COc1ccc(OCCN2CCN(c3ccnc4cc(Cl)ccc34)CC2)cc1
IC50 (HEPG2TOX_HILL_SLOPE 3.33, HEPG2TOX_R_SQUARED 0.981, PBLUC_HILL_SLOPE 2.57, PBLUC_R_SQUARED 0.319, read-out: LUCIFERASE INFECTION ASSAY - IC50): 5.62 µM | IC90: > 10 µM

COc1cc(NC(=O)N2Cc3cnc(Nc4cccc(N(C)C)c4)nc3C2)cc(OC)c1OC
IC50 [1]: > 7.1 µM | IC90: > 7.1 µM

O=S(=O)(c1ccc(Cl)c(N=C2NN=C(c3c[nH]c4ccccc34)CS2)c1)N1CCOCC1
IC50 (FFLUC_HILL_SLOPE 3.06, FFLUC_R_SQUARED 0.687, HEPG2TOX_HILL_SLOPE 3.66, HEPG2TOX_R_SQUARED 0.952, PBLUC_HILL_SLOPE 1.64, PBLUC_R_SQUARED 0.734, read-out: LUCIFERASE INFECTION ASSAY - IC50): 3.83 µM | IC90: > 10 µM

COc1ccc(/C=C(/C(=O)Nc2ccc(Cl)cc2)c2nc3ccccc3s2)cc1O
IC50 (HEPG2TOX_HILL_SLOPE 8.13, HEPG2TOX_R_SQUARED 0.744, PBLUC_HILL_SLOPE 10.1, PBLUC_R_SQUARED 0.615, read-out: LUCIFERASE INFECTION ASSAY - IC50): 3.45 µM | IC90: 4.29 µM

CCCc1nc2ccccc2n1CC(=O)N1N=C(c2ccc(Cl)cc2)CC1c1ccco1 (stereo not drawn)
IC50 (PBLUC_HILL_SLOPE 1.73, PBLUC_R_SQUARED 0.265, read-out: LUCIFERASE INFECTION ASSAY - IC50): > 10 µM | IC90: > 10 µM

CC(=O)N(c1nc(/C=C/C(=O)c2cccc(Br)c2)cs1)c1ccc(F)cc1F
IC50 (PBLUC_HILL_SLOPE 1.24, PBLUC_R_SQUARED 0.477, read-out: LUCIFERASE INFECTION ASSAY - IC50): 8.87 µM | IC90: > 10 µM

COCCCN1C(=O)N(Cc2ccccc2)C(=O)C12CCN(CCC(C)c1ccc(C)o1)CC2 (stereo not drawn)
IC50 (PBLUC_HILL_SLOPE 7.49, PBLUC_R_SQUARED 0.22, read-out: LUCIFERASE INFECTION ASSAY - IC50): 6.36 µM | IC90: > 7.06 µM

Clc1ccc(-c2cnc3cnc(-c4ccccc4)cn23)cc1
IC50 (PBLUC_HILL_SLOPE 10.1, PBLUC_R_SQUARED 0.74, read-out: LUCIFERASE INFECTION ASSAY - IC50): 3.88 µM | IC90: 4.82 µM

CCc1c(C(=O)Nc2ccn(CCc3ccccn3)n2)cnn1C(C)(C)C
IC50 (PBLUC_HILL_SLOPE 0.847, PBLUC_R_SQUARED 0.391, read-out: LUCIFERASE INFECTION ASSAY - IC50): 0.166 µM | IC90: 2.23 µM

CCN1C(=O)N(C2Cc3ccccc3C2)C(=O)C12CCN(Cc1ccc(-c3ccco3)cc1)CC2
IC50 (PBLUC_HILL_SLOPE 11.2, PBLUC_R_SQUARED 0.677, read-out: LUCIFERASE INFECTION ASSAY - IC50): 6.46 µM | IC90: > 7.03 µM

OC(COc1ccc(Cl)cc1)CN1CCC(Cc2ccccc2)CC1 (stereo not drawn)
IC50 (PBLUC_HILL_SLOPE 16.8, 4.66, PBLUC_R_SQUARED 0.391, 0.0786, read-out: LUCIFERASE INFECTION ASSAY - IC50): 6.33 µM | IC90: 8.19 µM

Cc1csc(NC(=O)Nc2cc(C(F)(F)F)cc(C(F)(F)F)c2)c1
IC50 (HEPG2TOX_HILL_SLOPE 15.4, HEPG2TOX_R_SQUARED 0.694, PBLUC_HILL_SLOPE 2.82, PBLUC_R_SQUARED 0.474, read-out: LUCIFERASE INFECTION ASSAY - IC50): 1.56 µM | IC90: 3.4 µM

C=CCNC(=O)CSC1=CC(=O)CC(c2ccc(Cl)cc2)S1 (stereo not drawn)
IC50 [1]: > 9.32 µM | IC90: > 9.32 µM

CN1c2ccsc2C(=O)/C(=C\Nc2ccccc2Cl)S1(=O)=O
IC50 [1]: > 9.3 µM | IC90: > 9.3 µM

CCc1cc(Cl)n2nc(C(=O)OC)nc2n1
IC50 [1]: > 10 µM | IC90: > 10 µM

CS(=O)(=O)NCCc1ccc(C(=O)Nc2ncccc2O)cc1
IC50 (PBLUC_HILL_SLOPE 2.26, PBLUC_R_SQUARED 0.152, read-out: LUCIFERASE INFECTION ASSAY - IC50): 6.59 µM | IC90: > 10 µM

CC(Oc1ccc(C#N)cc1)C(=O)Nc1nc(-c2ccccn2)cs1 (stereo not drawn)
IC50 (HEPG2TOX_HILL_SLOPE 1.33, HEPG2TOX_R_SQUARED 0.927, PBLUC_HILL_SLOPE 145, PBLUC_R_SQUARED 0.223, read-out: LUCIFERASE INFECTION ASSAY - IC50): 3.31 µM | IC90: 3.36 µM

COc1cccc(-c2cc3c(Nc4cccc(OC(C)C)c4)nccc3n2C)c1
IC50 (PBLUC_HILL_SLOPE 2.76, PBLUC_R_SQUARED 0.246, read-out: LUCIFERASE INFECTION ASSAY - IC50): 6.87 µM | IC90: > 10 µM

Cc1ccc(S(=O)(=O)N2CCC(C(=O)Nc3nnc(-c4ccc(Cl)cc4)o3)CC2)c(C)c1
IC50 [1]: > 10 µM | IC90: > 10 µM

CCOc1cc(C(=O)N2CCOCC2)ccc1OCc1cccnc1
IC50 [1]: > 10 µM | IC90: > 10 µM

CCCN1C(=O)/C(=N\OCC(=O)c2cc(C)n(Cc3cccs3)c2C)c2ccccc21
IC50 (HEPG2TOX_HILL_SLOPE 0.794, HEPG2TOX_R_SQUARED 0.3, read-out: LUCIFERASE INFECTION ASSAY - IC50): > 10 µM | IC90: > 10 µM

O=C(O)c1c2c(nc3ccccc13)/C(=C/c1ccc(OC(F)F)cc1)CC2
IC50 (PBLUC_HILL_SLOPE 0.722, PBLUC_R_SQUARED 0.387, read-out: LUCIFERASE INFECTION ASSAY - IC50): 5.43 µM | IC90: > 10 µM

C=CCn1c(SCC(=O)Nc2nnc(-c3ccccc3)o2)nc2cc(Cl)ccc2c1=O
IC50 [1]: > 10 µM | IC90: > 10 µM

Oc1c(Br)cc(/C=C/c2nc3cc(Cl)ccc3o2)cc1Br
IC50 (HEPG2TOX_HILL_SLOPE 9.25, HEPG2TOX_R_SQUARED 0.294, read-out: LUCIFERASE INFECTION ASSAY - IC50): > 10 µM | IC90: > 10 µM

CCOC(=O)c1c(-c2ccccc2)oc2ccc(N(C(C)=O)S(=O)(=O)c3ccc4ccccc4c3)cc12
IC50 [1]: 6.33 µM | IC90: > 10 µM

COc1ccc2cc(-c3nc4ccc(Cl)cc4c(-c4ccccc4F)c3C)ccc2c1
IC50 [1]: 6.1 µM | IC90: > 10 µM

CC(Sc1nnc(-c2ccc[nH]2)o1)C(=O)c1ccc(C(C)(C)C)cc1 (stereo not drawn)
IC50 (PBLUC_HILL_SLOPE 11.5, PBLUC_R_SQUARED 0.42, read-out: LUCIFERASE INFECTION ASSAY - IC50): 8.92 µM | IC90: > 10 µM

c1ccc(-c2cc(-c3ccc(NC4=NCCCS4)cc3)nc3ccccc23)cc1
IC50 (PBLUC_HILL_SLOPE 28.5, PBLUC_R_SQUARED 0.262, read-out: LUCIFERASE INFECTION ASSAY - IC50): 8.76 µM | IC90: 9.46 µM

CC(=O)Nc1cccc(-c2cn3c(-c4ccc5ncccc5c4)cnc3cn2)c1
IC50 (PBLUC_HILL_SLOPE 2.19, PBLUC_R_SQUARED 0.526, read-out: LUCIFERASE INFECTION ASSAY - IC50): 5.14 µM | IC90: > 8.7 µM

Cc1ccc(-c2nn(-c3ncc(Cl)cc3Cl)c(=O)c3ccccc23)cc1
IC50 (HEPG2TOX_HILL_SLOPE 2.58, HEPG2TOX_R_SQUARED 0.712, read-out: LUCIFERASE INFECTION ASSAY - IC50): > 10 µM | IC90: > 10 µM

CC1CCN(C(=O)COC(=O)c2cc(-c3ccc(Cl)cc3)nc3ccccc23)c2ccccc2S1 (stereo not drawn)
IC50 (PBLUC_HILL_SLOPE 0.574, PBLUC_R_SQUARED 0.62, read-out: LUCIFERASE INFECTION ASSAY - IC50): 2.73 µM | IC90: > 10 µM

Cc1nc(-c2ccc3c(c2)CC(=O)N3C)cs1
IC50 [1]: > 10 µM | IC90: > 10 µM

N=C(NOC(=O)Nc1ccc(OC(F)(F)F)cc1)c1cc(Cl)c(N)c(Cl)c1
IC50 [1]: > 7.8 µM | IC90: > 7.8 µM

O=C(Nc1nc2c(s1)CCCC2)c1c[nH]c(=S)n1-c1ccccc1
IC50 [1]: > 10 µM | IC90: > 10 µM

Cc1cc(C)c2c(N)c(C(=O)NNC(=O)COc3ccc4c5c(c(=O)oc4c3)CCC5)sc2n1
IC50 [1]: > 10 µM | IC90: > 10 µM
